Experimental findings from patent publication US9980943B2, “Methods of treating muscular dystrophy” (BOARD OF REGENTS OF THE NEVADA SYSTEM OF HIGHER EDUCATION, …, priority 2013, dated 2018) are described below.

Common to all, as to assay type: cell-based, mouse
The test system of assay [1] is α7 integrin (LacZ reporter in α7βgal+/− myoblasts). Nature of the assay: Myoblast α7+/LacZ integrin FDG assay (Burkin assay in myoblasts, 96-well). Conditions: α7+/LacZ myoblasts, 96-well.
Assay [2] deals with α7 integrin (LacZ reporter in α7+/LacZ myotubes). Nature of the assay: Myotube α7 integrin FDG assay (Burkin assay in myotubes, 96-well). As to conditions: myotubes.
In assay [3] the test system is β-galactosidase in CMV-LacZ C2C12 myotubes. The experiment in a line: CMV-LacZ secondary screen in C2C12 myotubes (β-Gal stabilizing assay). Conditions: for CMV-LACZ in Myotubes, signal relative to DMSO: C2C12 CMV-LacZ myotubes, fold relative to DMSO; for CMV-LACZ in Myotubes (β-galactosidase activity relative to DMSO): CMV-LacZ C2C12 myotubes, 96-well format. The procedure, abridged: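 Stable CMV-LacZ C2C12 clone; six-point curve 0.5–40 μM; duplicates.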

For `C=CCN(CC=C)C(=O)c1ccc(OC2CCN(S(=O)(=O)N(C)C)CC2)cc1` [MLS000693729-01], the “Burkin Assay in Myoblasts, value relative to DMSO” value is 0.9069 in assay [1] (0.5 uM); 0.7902 in assay [1] (1 uM); 0.8647 in assay [1] (5 uM); 0.9088 in assay [1] (10 uM); 0.9136 in assay [1] (20 uM); 0.9194 in assay [1] (40 uM). For the same compound, the “Burkin Assay in Myotubes (signal relative to DMSO)” value in assay [2] (0.5 uM) came out at 0.8219; in assay [2] (1 uM), 0.7707; in assay [2] (5 uM), 1.119; in assay [2] (10 uM) it was 1.144; in assay [2] (20 uM) it was 0.9682; in assay [2] (40 uM), 1.056. For the same compound, the “CMV-LACZ in Myotubes, signal relative to DMSO” value in assay [3] (5 uM) worked out at 0.9722; in assay [3] (10 uM) it was 1.057; in assay [3] (20 uM), 0.9031; in assay [3] (40 uM) it was 0.879.
As for `Cc1ccc(S(=O)(=O)N2CN(CC3CCCO3)c3nc4ccccc4nc32)c(C)c1` (stereo not drawn) [MLS001139288-01], the “Burkin Assay in Myoblasts, signal relative to DMSO” value in assay [1] (0.5 uM) is recorded as 0.9823; in assay [1] (1 uM), 0.9709; in assay [1] (5 uM), 0.8634; in assay [1] (10 uM), 0.9225; in assay [1] (20 uM) it was 1.085; in assay [1] (40 uM) it was 0.9336. The “Burkin Assay in Myotubes, α7 integrin LacZ reporter signal relative to DMSO” value amounted to 0.9234 in assay [2] (0.5 uM); 0.8525 in assay [2] (1 uM); 0.9829 in assay [2] (5 uM); 0.9777 in assay [2] (10 uM); 1.313 in assay [2] (20 uM); 0.7808 in assay [2] (40 uM). Further, the “CMV-LACZ in Myotubes, signal relative to DMSO” value in assay [3] (5 uM) is 1.247; in assay [3] (10 uM), 1.047; in assay [3] (20 uM), 1.096; in assay [3] (40 uM) it was 1.0825.
Consider `C/C(=N/OC(=O)CC(C)C)c1cc(-c2ccc(Cl)cc2)no1` [MLS000721030-01], for which the “Burkin Assay in Myoblasts, value relative to DMSO” value in assay [1] (0.5 uM) is on record as 0.9673; in assay [1] (1 uM) it was 0.9348; in assay [1] (5 uM), 1.027; in assay [1] (10 uM), 1.166; in assay [1] (20 uM), 1.025; in assay [1] (40 uM) it was 1.122. Moreover, the “Burkin Assay in Myotubes (signal relative to DMSO)” value in assay [2] (0.5 uM) stood at 0.9757; in assay [2] (1 uM), 1.051; in assay [2] (5 uM), 1.121; in assay [2] (10 uM), 1.2344; in assay [2] (20 uM), 1.1412; in assay [2] (40 uM), 1.205. The “CMV-LACZ in Myotubes (β-galactosidase activity relative to DMSO)” value in assay [3] (5 uM) was found to be 1.111; in assay [3] (10 uM), 0.9655; in assay [3] (20 uM) it was 0.9276; in assay [3] (40 uM), 0.7917.
Regarding `CCCNC(=S)N1CCC(NC(=O)c2ccc(OC)cc2)CC1` [MLS001211651-01], the “Burkin Assay in Myoblasts, signal relative to DMSO” value in assay [1] (0.5 uM) was determined as 1.061; in assay [1] (1 uM), 1.124; in assay [1] (5 uM) it was 1.011; in assay [1] (10 uM) it was 0.972; in assay [1] (20 uM) it was 0.9909; in assay [1] (40 uM), 1.026. In addition, the “Burkin Assay in Myotubes, α7 integrin LacZ reporter signal relative to DMSO” value in assay [2] (0.5 uM) is 0.8543; in assay [2] (1 uM), 0.913; in assay [2] (5 uM) it was 1.116; in assay [2] (10 uM), 1.025; in assay [2] (20 uM), 1.076; in assay [2] (40 uM), 1.027. Besides, the “CMV-LACZ in Myotubes, signal relative to DMSO” value in assay [3] (5 uM) amounted to 0.8714; in assay [3] (10 uM), 0.8433; in assay [3] (20 uM), 0.8465; in assay [3] (40 uM), 0.977.
Take `C/C(=N\Nc1nncc2ccccc12)c1cccc(OC(F)F)c1` [MLS001175556-01]: the “Burkin Assay in Myoblasts, value relative to DMSO” value in assay [1] (0.5 uM) worked out at 0.92; in assay [1] (1 uM), 0.8625; in assay [1] (5 uM), 0.9202; in assay [1] (10 uM), 0.8856; in assay [1] (20 uM), 0.8956; in assay [1] (40 uM), 0.8018. Moreover, the “Burkin Assay in Myotubes (signal relative to DMSO)” value in assay [2] (0.5 uM) was 0.949; in assay [2] (1 uM), 1.028; in assay [2] (5 uM) it was 1.1; in assay [2] (10 uM), 0.9013; in assay [2] (20 uM) it was 0.901; in assay [2] (40 uM) it was 0.7514. The “CMV-LACZ in Myotubes (β-galactosidase activity relative to DMSO)” value in assay [3] (5 uM) is recorded as 1.113; in assay [3] (10 uM) it was 1.053; in assay [3] (20 uM), 0.9158; in assay [3] (40 uM) it was 1.103.
Take `COC(=O)c1ccc(COC(=O)CNC(=O)c2cccs2)cc1` [MLS001123810-01]: the “Burkin Assay in Myoblasts, value relative to DMSO” value is listed as 0.9767 in assay [1] (0.5 uM); 0.9524 in assay [1] (1 uM); 0.9782 in assay [1] (5 uM); 0.9779 in assay [1] (10 uM); 0.8853 in assay [1] (20 uM); 0.8729 in assay [1] (40 uM). The “Burkin Assay in Myotubes (signal relative to DMSO)” value in assay [2] (0.5 uM) turned out to be 0.974; in assay [2] (1 uM), 0.9657; in assay [2] (5 uM), 1.417; in assay [2] (10 uM), 1.116; in assay [2] (20 uM) it was 0.9515; in assay [2] (40 uM), 0.9694. Besides, the “CMV-LACZ in Myotubes, signal relative to DMSO” value in assay [3] (5 uM) worked out at 0.8812; in assay [3] (10 uM), 0.815; in assay [3] (20 uM) it was 1.159; in assay [3] (40 uM), 0.9346.
